From PubChem BioAssay (NCI)
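All cell lines were grown in 96-well plates and treated with compound for 48 hours. GI50 is the concentration that inhibits growth by half. TGI is the concentration that stops growth completely.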

How the values were obtained:
Test in all cases: growth of human tumour cells (NCI), 48 h
SR leukemia = test system: SR leukemia
OVCAR-5 ovarian = test system: OVCAR-5 ovarian
HOP-92 NSCLC = test system: HOP-92 NSCLC
U251 CNS = test system: U251 CNS
HCT-116 colon = test system: HCT-116 colon
NCI-H522 lung = test system: NCI-H522 lung
NCI-H23 lung = test system: NCI-H23 lung
SK-MEL-5 melanoma = test system: SK-MEL-5 melanoma
SNB-19 CNS = test system: SNB-19 CNS
NCI-H226 lung = test system: NCI-H226 lung

Row | SMILES | GI50 (SR leukemia) [µM] | TGI (SR leukemia) [µM] | GI50 (OVCAR-5 ovarian) [µM] | TGI (OVCAR-5 ovarian) [µM] | GI50 (HOP-92 NSCLC) [µM] | TGI (HOP-92 NSCLC) [µM] | GI50 (U251 CNS) [µM] | TGI (U251 CNS) [µM] | TGI (HCT-116 colon) [µM] | TGI (NCI-H522 lung) [µM] | TGI (NCI-H23 lung) [µM] | TGI (SK-MEL-5 melanoma) [µM] | GI50 (SNB-19 CNS) [µM] | TGI (SNB-19 CNS) [µM] | GI50 (HCT-116 colon) [µM] | GI50 (NCI-H522 lung) [µM] | GI50 (NCI-H23 lung) [µM] | GI50 (NCI-H226 lung) [µM] | TGI (NCI-H226 lung) [µM] | GI50 (SK-MEL-5 melanoma) [µM]
1 | c1cnc2[nH]cc(-c3csc(-c4cn(CCCN5CCCCC5)c5ccccc45)n3)c2c1 | 1.89 | 3.74 | 1.63 | 3.11 | 1.36 | 2.88 | 1.8 | 3.28 | – | – | – | – | – | – | – | – | – | – | – | –
2 | COc1cc(O)c(C(C)=O)c(O)c1 | – | > 100 | – | > 100 | – | 90.8 | – | > 100 | > 100 | > 100 | > 100 | > 100 | – | – | – | – | – | – | – | –
3 | CCN(CC)CCOc1ccc(/C=C2\CC3C4CC=C5C[C@@H](OC(C)=O)CC[C@]5(C)C4CC[C@]3(C)C2=O)cc1OC (some centres undefined) | – | – | 3.38 | 12.4 | 13.3 | 37.7 | 11.4 | 25.8 | 5.61 | 33.1 | 49.5 | – | 47.1 | > 100 | 1.92 | 14.4 | 12.4 | 13.3 | 35.9 | –
4 | O=C(Nc1ccc(Cl)cc1)Nc1ccccc1CNc1nc(Nc2ccc(OCCN3CCCC3)cc2)ncc1Cl | 1.7 | 50 | 1.1 | 2.7 | 0.985 | 2.77 | – | – | 1.85 | 2.94 | 10 | 1.53 | 2.5 | 11.6 | 0.927 | 1.18 | 2.53 | – | – | 0.845
5 | COc1ccc2[nH]c(-c3ccccc3)cc2c1 | – | – | > 100 | > 100 | 70 | > 100 | > 100 | > 100 | > 100 | > 100 | > 100 | > 100 | > 100 | > 100 | > 100 | 73.9 | 97.9 | > 100 | > 100 | 86.6
6 | O=C(Nc1cc(S(=O)(=O)c2ccc(Cl)cc2)ccc1Cl)c1cc(I)cc(I)c1O | 26 | 60.1 | 18.3 | 38.2 | – | – | 15.3 | 30.8 | 27.7 | 26.6 | 33.9 | 28.3 | 14.9 | 29.3 | 14.3 | 11.8 | 16.5 | 26.8 | 69.1 | 14.9
7 | COc1ccc2c(c1)nc1n2C(c2ccc(F)cc2)SC1 (centres undefined) | – | – | 33.6 | > 100 | 23 | > 100 | 27.9 | 83.7 | > 100 | 66.3 | > 100 | 28.7 | 36.5 | > 100 | 30.8 | 18.1 | 18.9 | 19.1 | 54.1 | 15.4
8 | Cc1ccccc1NC(=O)C(=O)CC(=O)c1ccc([N+](=O)[O-])cc1 | – | – | – | > 100 | – | > 100 | – | > 100 | > 100 | – | > 100 | – | – | > 100 | – | – | – | – | > 100 | –
